Results reported in patent US11014934B2, “Antiseptic drug” (AO “TATKHIMFARMPREPARATY”, priority 2017, dated 2021).

Key:
clinical enterococci = experiment: MIC screening, summary for clinical enterococci; type: cell-based; conditions: range over clinical enterococci
Method: A comparative assessment of the spectrum of antibacterial action was carried out on archival and clinical strains of gram-positive and gram-negative microorganisms in accordance with the [Opredeleniye chuvstvitel'nosti mikroorganizmov k antibakterial'nym preparatam (Metodicheskiye ukazaniya MUK 4.2.1890-04). Utverzhdeny i vvedeny v deystviye Glavnym gosudarstvennym sanitarnym vrachom Rossiyskoy Federatsii G. G. Onishchenko 04.03.2004 g. Determination of the sensitivity of microorganisms to antibacterial drugs (Guidelines MUK 4.2.1890-04). Approved and put into effect by the Chief State Sanitary Doctor of the Russian Federation G. G. Onishchenko on 4 Mar. 2004].
The value of the minimum inhibitory concentration (MIC) was determined by the method of serial dilutions on Müller-Hinton broth using 96-well sterile plates. […] The growth of cultures was assessed visually, comparing the growth of microorganisms in the presence of test compounds with the growth of culture without them. […] The first lowest concentration of the studied substance (from a series of consecutive dilutions), where bacterial growth is not visually determined, is considered to be the minimum inhibitory concentration (MIC). MIC was determined by the method of serial dilutions in broth with increment=2, so the differences of neighboring dilutions are not considered to be significant. […]

[1] = system: mice of the CD-1 (ICR) line; experiment: Acute toxicity in mice after intragastric administration; type: in vivo
Method: (§1) The study was performed on mice of the CD-1 (ICR) line (6-8 weeks, weight not less than 18 g) of both sexes. […] Mice administered doses were 3000 mg/kg, 2000 mg/kg, 1000 mg/kg, 500 mg/kg and 50 mg/kg.

[2] = as above; type: in vivo; conditions: both sexes, mouse, in vivo, po; Mice CD-1, intragastric administration; read-out: LD50 (95% confidence interval)
Method: as §1

[3] = system: S.marcescens in the biofilm; experiment: Antibacterial activity against cells immersed in a biofilm matrix (CFU, drop plate); type: cell-based
Method: (§2) To determine the effectiveness of the antibiotic against bacteria in […], bacteria were grown in Basal medium for 3 days at a temperature of 37° C. without swinging to obtain a dense biofilm [A. R Kayumov, Khakimullina E., Sharafutdinov I, Trizna E., Latypova L., Lien Thi, Margulis A., Bogachev M, Kurbangalieva A. Inhibition of biofilm formation in Bacillus subtilis by new halogenated furanoses. J. Antibiotics.—2014.—V. 68.—No 5.—P. 297-301.]. Then the biofilm was washed with a sterile 0.9% NaCl solution and fresh sterile medium was poured. Antiseptics were added to concentrations (1-16)×MBC (minimum bactericidal concentration) and incubated for 24 hours. Then the culture fluid was removed from the wells, washed once with 0.9% NaCl solution to remove non-adherent cells, and cell viability in biofilms was evaluated by counting CFU by Drop plate analysis [B. Herigstad, M Hamilton, J. Heersink How to optimize the drop plate method for enumerating bacteria. J Microbiol Methods.—2001.—V. 44.—P. 121-129]. To do this, the biofilm was mechanically removed from the surface and homogenized in 0.9% NaCl by pipetting and ultrasonic treatment. Then, serial 10-fold dilutions of the bacterial suspension in 0.9% NaCl were prepared, and 5 μI of each suspension were transferred to plates with dense nutrient medium. CFU was counted from drops containing 5-10 colonies.
(§3) The results of the study of antimicrobial activity against cells of the studied strains immersed in the biofilm matrix, in comparison with miramistin and benzalkonium chloride, are presented in FIGS. 1 and 2.

[4] = system: K. pneumonia in the biofilm; experiment: as above; type: cell-based
Method: as §2, §3

E. coli in the biofilm = experiment: as above; type: cell-based
Method: as §2, §3

[5] = both, CD-1 (ICR), mouse, in vivo

CCCCCCCCCCCC[N+](C)(C)Cc1cnc(C[N+](C)(C)CCCCCCCCCCCC)c2c1COC(CC)O2 (centres unmarked) [Compound I, 5,8-(Bis(methylene (N, N-dimethyl-N-dodecylammonium))-2-ethyl-4H-[1,3]dioxino [4,5-c]pyridiniumdichloride]
MIC for clinical enterococci (clinical enterococci): 0.03 to 4 µg
hazard class in accordance with GOST 12.1.007-76 ([1]; acute toxicity, oral, mice): 3rd class of moderately hazardous harmful substances
toxicity class according to the Globally Harmonized System (GOST 32644-2014) ([1]; acute toxicity, oral, mice): 4th toxicity class
LD16 [1, 5]: 788 mg/kg
LD86 [1, 5]: 2623 mg/kg
Number of died animals in the group ([1]; both, CD-1 (ICR), mouse, in vivo, 50 mg/kg): 0/6
Number of died animals in the group ([1]; both, CD-1 (ICR), mouse, in vivo, 500 mg/kg): 0/6
Number of died animals in the group ([1]; both, CD-1 (ICR), mouse, in vivo, 1000 mg/kg): 3/6
Number of died animals in the group ([1]; both, CD-1 (ICR), mouse, in vivo, 2000 mg/kg): 5/10
Number of died animals in the group ([1]; both, CD-1 (ICR), mouse, in vivo, 3000 mg/kg): 4/4
LD50 [2]: 1710 mg/kg
activity in the biofilm compared with comparison antiseptics [3]: the same activity as miramistine and benzalconium chloride
activity in the biofilm compared with comparison antiseptics [4]: the same activity as miramistine and benzalconium chloride
activity in the biofilm compared with comparison antiseptics (E. coli in the biofilm): the same activity as miramistine and benzalconium chloride
